From publication PMC7395068, “The evolution of strategies to minimise the risk of human drug-induced liver injury (DILI) in drug discovery and development” (Archives of Toxicology, 2020)
Read-outs that look alike come from different tables or passages of the source.

Legend:
human hepatocytes = conditions: cited from earlier work
rBsep = conditions: cited from earlier work
[1] = cited from earlier work
[2] = tested on: THLE or HepG2 cells, isolated mitochondria, BSEP; conditions: cited from earlier work
hLiMTs [3] = conditions: cited from earlier work
hLiMTs [4] = test: Combined HCI (HCS) and cellular ATP 3D assay in hLiMTs; conditions: for AC50 / minimal effective concentration: Homo sapiens
[5] = ref Chen 2011; cited from earlier work
HepaRG spheroids = test: Combined HCI (HCS) and cellular ATP 3D assay in HepaRG spheroids; conditions: for AC50 / minimal effective concentration: Homo sapiens
[6] = read-out: Human plasma Cmax; total plasma Cmax.tot, median of 9 literature references; cited from earlier work
[7] = plasma free fraction; cited from earlier work
[8] = tested on: THLE-Null and THLE-3A4 cells; conditions: In vitro Assay; ref Gustafsson 2014; cited from earlier work
HepG2 cells [9] = conditions: cited from earlier work
[10] = Plasma free fraction (fu) and unbound Cmax (Cmax,u); format: in vitro ADME, human; conditions: unbound plasma Cmax
Protocol: The prediction of DILI severity was evaluated further using the 3D combined HCI assays using plasma-free fraction. The majority of fu values were obtained from literature, when unavailable in-house prediction was utilised. Unbound plasma Cmax concentrations (Cmax,u) were derived by multiplying total plasma Cmax with the corresponding free fraction (fu) for each compound.

PHH = conditions: cited from earlier work
PHH spheroids = conditions: cited from earlier work
Upcyte human hepatocytes = conditions: In vitro Assay; ref Tolosa 2019; cited from earlier work
HepG2 cells [11] = conditions: cited from earlier work; remark: listed apart in the source
[12] = tested on: HepG2 cells, primary human hepatocytes; conditions: In vitro Assay; ref Garside 2014; cited from earlier work
[13] = tested on: HepG2 C3A spheroid, BSEP, Glu/Gal in HepG2 cells, bioactivation; conditions: cited from earlier work
HepG2 cells [14] = conditions: cited from earlier work; remark: listed apart in the source
[15] = cited from earlier work; remark: listed apart in the source
[16] = Modeled in vitro assays (cytotoxicity, mitochondrial dysfunction, BSEP), ref Aleo et al. 2019
[17] = In vitro Assay, ref Proctor 2017
[18] = Microtissue model structural based (HCI), combined HCS and ATP, MEC < 25 × Cmax.tot cut-off
[19] = In vitro Assay, ref Persson 2013

Structure (SMILES): CN(C)CCCN1c2ccccc2Sc2ccc(Cl)cc21 [chlorpromazine, reference compound]
- Structural based (HCI) (human hepatocytes; In vitro Assay, ref Xu 2008): +VE
- DILI in vitro assay prediction, Xu (2008) (human hepatocytes; Structural based (HCI), human hepatocytes, ref Xu et al. 2008): +VE
- Inhibition of rBsep cutoff<1& cmax u>.2 (rBsep; In vitro Assay, ref Dawson 2012): -VE
- Inhibition of rBsep cutoff<3 (rBsep): +VE
- DILI severity category (Chen et al. [2016]) ([1]; LTKB DILIrank category, ref Chen et al. 2016): Less
- DILI severity category (Chen 2016) ([1]; human DILI classification, LTKB DILIrank, ref Chen et al. 2016): Less
- DILI severity category ([1]; human DILI severity, ref Chen et al.): Less
- DILI +VE (5-8), DILI -VE (-4) ([1]; ref Chen 2016): +VE
- DILI severity category ([1]; ref Chen 2016): vLess-DILI-Concern
- Partition Hybrid HRM Score ([2]; In vitro Assay, ref Aleo 2019): +VE
- Ro2 Hybrid HRM Score ([2]; In vitro Assay, ref Aleo 2019): +VE
- Partition Hybrid HRM Score ≥4, Aleo (2019) [2, 16]: +VE (Partition Hybrid HRM Score ≥4)
- Partition Hybrid HRM Score ≥8, Aleo (2019) [2, 16]: -VE
- Rule of Two hybrid HRM Score ≥3, Aleo (2019) [2, 16]: +VE (Rule of Two hybrid HRM Score ≥3)
- Rule of Two hybrid HRM Score ≥8, Aleo (2019) [2, 16]: -VE
- hLiMTs ATP <100uM (hLiMTs [3]; [17]): +VE (IC50 threshold of 100 µM)
- hLiMTs/100xCmax, Proctor (2017) (hLiMTs [3]; hLiMTs, ATP, IC50 < 100 × Cmax.tot, ref Proctor et al. 2017): +VE (IC50 < 100 × Cmax.tot)
- hLiMTs/100uM, Proctor (2017) (hLiMTs [3]; hLiMTs, ATP, IC50 threshold 100 µM, ref Proctor et al. 2017): +VE (IC50 threshold of 100 µM)
- AC50 (hLiMTs [4]; read-out: ATP endpoint AC50): 3.73 µM
- minimal effective concentration (hLiMTs [4]; read-out: ATP endpoint MEC): 2.7 µM
- AC50 (hLiMTs [4]; read-out: HCS endpoint AC50): 6.41 µM
- minimal effective concentration (hLiMTs [4]; read-out: HCS endpoint MEC): 2.47 µM
- DILI prediction hLiMTs (HCS-MEC) (hLiMTs [4]; [18]): +VE (MEC < 25 × Cmax.tot cut-off)
- hLiMTs <25x Avg Cmax ATP (hLiMTs [4]; hLiMTs, ATP endpoint, cut-off <25x Avg Cmax): +ve
- hLiMTs <100x Avg Cmaxu ATP (hLiMTs [4]; hLiMTs, ATP endpoint, cut-off <100x Avg Cmaxu): +ve (<100x Avg Cmaxu)
- hLiMTs <25x Avg Cmax HCS (hLiMTs [4]; hLiMTs, HCS endpoints, cut-off <25x Avg Cmax): +ve
- hLiMTs <100x Avg Cmaxu HCS (hLiMTs [4]; hLiMTs, HCS endpoints, cut-off <100x Avg Cmaxu): +ve (<100x Avg Cmaxu)
- hLiMTs <25x Avg Cmax All (hLiMTs [4]; hLiMTs, all endpoints (ATP and HCS), cut-off <25x Avg Cmax): +ve
- hLiMTs Cmax max All (hLiMTs [4]; hLiMTs, all endpoints, Cmax max used): +ve
- hLiMTs Cmax min All (hLiMTs [4]; hLiMTs, all endpoints, Cmax min used): +ve
- hLiMTs <10 uM All (hLiMTs [4]; hLiMTs, all endpoints, cut-off <10 uM): +ve (<10 uM)
- hLiMTs <100x Avg Cmaxu All (hLiMTs [4]; hLiMTs, all endpoints, cut-off <100x Avg Cmaxu): +ve (<100x Avg Cmaxu)
- DILI Score (FDA) (1-8) [5]: 2
- HepaRG <25x Avg Cmax ATP (HepaRG spheroids; HepaRG, ATP endpoint, cut-off <25x Avg Cmax): +ve
- HepaRG <100x Avg Cmaxu ATP (HepaRG spheroids; HepaRG, ATP endpoint, cut-off <100x Avg Cmaxu): +ve (<100x Avg Cmaxu)
- HepaRG <25x Avg Cmax HCS (HepaRG spheroids; HepaRG, HCS endpoints, cut-off <25x Avg Cmax): +ve
- HepaRG <100x Avg Cmaxu HCS (HepaRG spheroids; HepaRG, HCS endpoints, cut-off <100x Avg Cmaxu): +ve (<100x Avg Cmaxu)
- HepaRG <25x Avg Cmax All (HepaRG spheroids; HepaRG, all endpoints (ATP and HCS), cut-off <25x Avg Cmax): +ve
- HepaRG Cmax max All (HepaRG spheroids; HepaRG, all endpoints, Cmax max used): +ve
- HepaRG Cmax min All (HepaRG spheroids; HepaRG, all endpoints, Cmax min used): +ve
- HepaRG <10 uM All (HepaRG spheroids; HepaRG, all endpoints, cut-off <10 uM): +ve (<10 uM)
- HepaRG <100x Avg Cmaxu All (HepaRG spheroids; HepaRG, all endpoints, cut-off <100x Avg Cmaxu): +ve (<100x Avg Cmaxu)
- AC50 (HepaRG spheroids; HepaRG, read-out: ATP endpoint AC50): 6.33 µM
- minimal effective concentration (HepaRG spheroids; HepaRG, read-out: ATP endpoint MEC): 3.45 µM
- AC50 (HepaRG spheroids; HepaRG, read-out: HCS endpoint AC50): 8.8 µM
- minimal effective concentration (HepaRG spheroids; HepaRG, read-out: HCS endpoint MEC): 1.72 µM
- DILI prediction HepaRG spheroids (HCS-MEC) (HepaRG spheroids; [18]): +VE (MEC < 25 × Cmax.tot cut-off)
- Cmax [6]: 941 nM
- fu [7]: 0.050
- THLE-Null [8]: +VE
- Structural based (HCI) (HepG2 cells [9]; In vitro Assay, ref Tolosa 2012): +VE
- DILI in vitro assay prediction, Tolosa (2012) (HepG2 cells [9]; Structural based (HCI), HepG2, ref Tolosa et al. 2012): +VE
- Human plasma Cmax,u [10]: 0.047 µM
- PHH/100xCmax, Proctor (2017) (PHH; 2D PHH, ATP, IC50 < 100 × Cmax.tot, ref Proctor et al. 2017): +VE (IC50 < 100 × Cmax.tot)
- PHH/100uM, Proctor (2017) (PHH; 2D PHH, ATP, IC50 threshold 100 µM, ref Proctor et al. 2017): +VE (IC50 threshold of 100 µM)
- PHH ATP <100uM (PHH; [17]): +VE (IC50 threshold of 100 µM)
- hLiMTs ATP <20 x Cmax (PHH spheroids; In vitro Assay, ref Vorrink 2018): +VE (IC20 < 20 × Cmax.tot cut-off)
- DILI in vitro assay prediction, Vorrink (2018) (PHH spheroids; PHH spheroids, ATP, 14 days, IC20 < 20 × Cmax.tot, ref Vorrink et al. 2018): +VE (IC20 < 20 × Cmax.tot cut-off)
- Upcytes multi donor assay 14day data (Upcyte human hepatocytes): +VE
- Cluser analysis (HepG2 cells [11]; [19]): +VE
- Structural based (HCI) (HepG2 cells [11]; [19]): +VE
- DILI in vitro assay prediction, Persson (2013) (HepG2 cells [11]; Structural based (HCI), HepG2, ref Persson et al. 2013): +VE
- Cluster 1-6 +VE Assay [12]: +VE
- Bayesian Machine Learning DILI prediction, Williams (2019) ([13]; Bayesian modeling, ref Williams et al. 2019): +VE
- Bayesian Machine Learning ([13]; In vitro Assay, ref Williams 2019): +VE
- Structural based (HCI) (HepG2 cells [14]; In vitro Assay, ref O'Brien 2006): +VE
- DILI in vitro assay prediction, O'Brien (2006) (HepG2 cells [14]; Structural based (HCI), HepG2, ref O'Brien et al. 2006): +VE (lowest HCI endpoint IC50 (or in the absence of dose–response < 100 µM) < 30 × total human plasma exposure levels (Cmax.tot))
- Assigned DILI category ([15]; Chen et al. 2016 or literature alignment, ref Chen et al. 2016): 2
- In vivo DILI ([15]; […]): +VE
- In vivo DILI ([15]; ref Aleo 2019): +VE
- In vivo DILI ([15]; ref Dawson 2012): +VE
- In vivo DILI ([15]; ref Garside 2014): +VE
- In vivo DILI ([15]; ref Gustafsson 2014): +VE
- In vivo DILI ([15]; ref O'Brien 2006): +VE
- In vivo DILI ([15]; ref Persson 2013): +VE
- In vivo DILI ([15]; ref Proctor 2017): +VE
- In vivo DILI ([15]; ref Tolosa 2012): +VE
- In vivo DILI ([15]; ref Tolosa 2019): +VE
- In vivo DILI ([15]; ref Vorrink 2018): +VE
- In vivo DILI ([15]; ref Williams 2019): +VE
- In vivo DILI ([15]; ref Xu 2008): +VE
